Assay [1] concerns Trypanosome (T. brucei brucei). The assay can be described thus: In-vitro antitrypanosomal efficacy assay (cell growth, resazurin). The class given is cell-based. The note with it: T. brucei cell growth. For orientation: Resazurin is reduced to fluorescent resorufin, in cell work by metabolically active cells.
Protocol: To column 12, 200 μl media was added to provide a no cells control. Plates were then incubated at 37° C. in an atmosphere of 5% CO2 for 69 hours, before the addition of 20 μl of 500 μM rezasurin solution, and a further incubation period of 4 hours. […] Concentration effect curves were fitted using non-linear regression using XLFit 4.2 and EC50 values determined.
Assay [2] deals with T. brucei N-myristoyl transferase (Trypanosoma brucei brucei (strain 927/4 GUTat10.1), UniProt Q388H8). In words: biochemical. The class given is biochemical. Conditions: value printed without enzyme tag in the NMT Enzyme column (taken as T. brucei NMT); read-out: IC50 (μM) NMT Enzyme.
T. brucei N-myristoyl transferase, sequence (Q388H8 1-446): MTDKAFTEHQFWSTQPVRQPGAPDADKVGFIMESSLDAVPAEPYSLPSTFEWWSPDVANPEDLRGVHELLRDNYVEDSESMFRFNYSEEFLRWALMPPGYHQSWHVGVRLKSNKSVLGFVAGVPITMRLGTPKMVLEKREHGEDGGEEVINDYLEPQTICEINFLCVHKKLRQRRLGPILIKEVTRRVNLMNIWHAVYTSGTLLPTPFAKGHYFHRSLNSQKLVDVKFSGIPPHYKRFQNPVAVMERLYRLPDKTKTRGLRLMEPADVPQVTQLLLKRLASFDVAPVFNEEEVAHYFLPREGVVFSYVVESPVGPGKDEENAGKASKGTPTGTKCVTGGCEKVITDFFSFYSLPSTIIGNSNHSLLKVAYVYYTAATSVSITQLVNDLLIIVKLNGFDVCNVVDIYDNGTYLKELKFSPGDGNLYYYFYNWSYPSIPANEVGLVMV

The structures appear in SMILES notation.

Broadly, the IC50 is the midpoint of a concentration-inhibition curve. Regarding `Cc1nn(C)c(C)c1N[S+](=O)([O-])c1ccc(COc2ccc3cc[nH]c3c2)cc1` [DDD73507], the “ED50 (μM) T. brucei” value in assay [1] was >1 µM. Moreover, the IC50 in assay [2] came to 4.5 µM.
In the same order, the values of `Cc1nn(C)c(C)c1N[S+](=O)([O-])c1ccc(CNc2ccc(-c3ccccn3)cc2)cc1` [DDD73508] are >1 µM and 5.2 µM.
In the same order, the values of `Cc1nn(C)c(C)c1N[S+](=O)([O-])c1ccc(CNc2ccccc2)cc1` [DDD73509] are >1 µM and 3.8 µM.
In the same order, the values of `Cc1nn(C)c(C)c1N[S+](=O)([O-])c1ccc(CNc2noc(C)c2C)cc1` [DDD73510] are >1 µM and 26.9 µM.
As to `Cc1nn(C)c(C)c1N[S+](=O)([O-])c1ccc(COCc2ccc3ccccc3c2)cc1` [DDD73511], the “ED50 (μM) T. brucei” value in assay [1] is >1 µM. Further, in assay [2], the IC50 is > 100 µM.
With `Cc1nn(C)c(C)c1N[S+](=O)([O-])c1ccc(Cn2cnc3ccccc32)cc1` [DDD73512], the “ED50 (μM) T. brucei” value in assay [1] is >1 µM. Further, the IC50 in assay [2] was found to be 6.1 µM.
In the same order, the values of `COc1ccc(NCc2ccc([S+](=O)([O-])Nc3c(C)nn(C)c3C)cc2)cc1` [DDD73513] are >1 µM and 5.7 µM.
In the case of `Cc1nn(C)c(C)c1N[S+](=O)([O-])c1ccc(CSc2ccc3ccccc3c2)cc1` [DDD73516], in assay [1], the “ED50 (μM) T. brucei” value was >1 µM. In assay [2], the IC50 is 47.6 µM.
On the same counts, the results for `Cc1nn(C)c(C)c1N(C1CC1)[S+](=O)([O-])c1c(Cl)cc(Br)cc1Cl` [DDD85591] are 5.3 µM and 0.59 µM.
For `Cc1nn(C)c(C)c1N[S+](=O)([O-])c1ccc(CNC2CCc3ccccc32)cc1` (stereo not drawn) [DDD85592], the “ED50 (μM) T. brucei” value in assay [1] was >1 µM. Moreover, the IC50 in assay [2] was 44 µM.
Regarding `Cc1nn(C)c(C)c1N(CCCO)S(=O)(=O)c1c(Cl)cc(Br)cc1Cl` [DDD85593, 4-Bromo-2,6-dichloro-N-(3-hydroxy-propyl)-N-(1,3,5-trimethyl-1H-pyrazol-4-yl)-benzenesulfonamide], in assay [1], the “ED50 (μM) T. brucei” value worked out at 3.5 µM. Besides, the IC50 in assay [2] turned out to be 0.36 µM.
On to `CCCN(c1c(C)nn(C)c1C)[S+](=O)([O-])c1c(Cl)cc(Br)cc1Cl` [DDD85594], for which the “ED50 (μM) T. brucei” value in assay [1] is 21.0 µM. Further, in assay [2], the IC50 turned out to be 3.2 µM.
On the same counts, the results for `Cc1nn(C)c(C)c1N[S+](=O)([O-])c1ccc(CN2CCCc3ccccc32)cc1` [DDD85596] are >1 µM and 41.7 µM.
On to `Cc1nn(C)c(C)c1N[S+](=O)([O-])c1ccc(N2CCc3ccccc32)nc1` [DDD85597], for which the “ED50 (μM) T. brucei” value in assay [1] is >1 µM. Further, the IC50 in assay [2] amounted to 8 µM.
For the compound `Cc1nn(C)c(C)c1N[S+](=O)([O-])c1ccc(N2Cc3ccccc3C2)nc1` [DDD85598], the “ED50 (μM) T. brucei” value in assay [1] is >1 µM. In addition, the IC50 in assay [2] came out at 18.2 µM.
In the same order, the values of `Cc1nn(C)c(C)c1N[S+](=O)([O-])c1ccc(CSCc2ccccc2)cc1` [DDD85599] are >1 µM and 2.4 µM.
In the same order, the values of `Cc1nn(C)c(C)c1N(C1CCCC1)[S+](=O)([O-])c1c(Cl)cc(Br)cc1Cl` [DDD85600] are 5.9 µM and 1.9 µM.
In the same order, the values of `COc1ccc(SCc2ccc([S+](=O)([O-])Nc3c(C)nn(C)c3C)cc2)cc1OC` [DDD85604] are >1 µM and 3.3 µM.
On to `Cc1nn(C)c(C)c1N(C)[S+](=O)([O-])c1ccc(N2CCc3c(N)cccc3C2)nc1` [DDD85605], for which, in assay [1], the “ED50 (μM) T. brucei” value came out at 2.4 µM. Moreover, in assay [2], the IC50 stood at 0.57 µM.
On the same counts, the results for `Cc1nn(C)c(C)c1N(CCc1ccccc1)[S+](=O)([O-])c1c(Cl)cc(Br)cc1Cl` [DDD85606] are 3.6 µM and 4.9 µM.
As to `Cc1nn(C)c(C)c1N(CCO)[S+](=O)([O-])c1c(Cl)cc(Br)cc1Cl` [DDD85607], in assay [1], the “ED50 (μM) T. brucei” value worked out at 7.1 µM. Besides, in assay [2], the IC50 amounted to 1.1 µM.

For the origin of these results see patent publication US9156811B2 (priority 2008, dated 2015).
